One experiment addresses T1, kinase-domain human PKCι (Homo sapiens, UniProt P41743).
T1 construct: Recombinant, kinase-domain human PKCι is expressed and purified in-house; made in house
T1 sequence (P41743 254-522 limits assumed): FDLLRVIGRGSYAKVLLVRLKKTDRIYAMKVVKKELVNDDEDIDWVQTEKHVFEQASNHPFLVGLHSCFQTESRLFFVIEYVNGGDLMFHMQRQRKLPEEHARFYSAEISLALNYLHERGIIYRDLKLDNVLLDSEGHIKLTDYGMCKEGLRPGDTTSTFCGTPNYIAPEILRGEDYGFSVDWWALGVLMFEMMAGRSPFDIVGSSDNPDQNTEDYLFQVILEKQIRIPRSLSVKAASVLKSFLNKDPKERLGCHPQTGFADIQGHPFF
The experiment can be described thus: PKCι IC50 IMAP fluorescence polarisation assay, kinase-domain enzyme. Format: biochemical. Particulars: kinase domain PKCi at 2 μM ATP; read-out: IC50 in IMAP assay against kinase domain PKCi. On the technique in general: In fluorescence polarisation assays a small probe gives low polarisation when free and higher when bound to something large.
Broadly, the IC50 is the concentration that inhibits the measured activity by half. With `Cc1csc2c(OC[C@@H]3CCCN3)nc(-c3ccncc3)nc12` [compound 480, 7-Methyl-2-pyridin-4-yl-4-((S)-1-pyrrolidin-2-ylmethoxy)-thieno[3,2-d]pyrimidine], the IC50 was 10 to 40 µM.

For the molecule `Cc1csc2c(OC[C@H](N)Cc3ccccc3)nc(-c3ccncc3)nc12` [compound 482, (R)-1-(7-Methyl-2-pyridin-4-yl-thieno[3,2-d]pyrimidin-4-yloxymethyl)-2-phenyl-ethylamine], the IC50 lay within 10 to 40 µM. The same measure, in the same setting: as for `N[C@H](CNc1nc(-c2ccncc2)nc2c1sc1cccc(Cl)c12)Cc1ccccc1` [compound 372, (S)-N*1*-(9-Chloro-2-pyridin-4-yl-benzo[4,5]thieno[3,2-d]pyrimidin-4-yl)-3-phenyl-propane-1,2-diamine], the figure is 0.1 to 1 µM; as for `Cc1csc2c(N3CCNCC3)nc(-c3ccncc3)nc12` [compound 363, 7-Methyl-4-piperazin-1-yl-2-pyridin-4-yl-thieno[3,2-d]pyrimidine], 0.1 to 1 µM; as for `C[C@@H](N)CNc1nc(-c2ccncc2)nc2cc(C(C)(C)C)sc12` [compound 308, (R)-N*1*-(6-tert-Butyl-2-pyridin-4-yl-thieno[3,2-d]pyrimidin-4-yl)-propane-1,2-diamine], 10 to 40 µM. As to `Cc1csc2c(NC[C@H](C)N)nc(-c3ccncc3)nc12` [compound 361, (S)-N*1*-(7-Methyl-2-pyridin-4-yl-thieno[3,2-d]pyrimidin-4-yl)-propane-1,2-diamine], the IC50 was 0.1 to 1 µM.

Still in this experiment, the particulars now being: kinase domain PKCi at 2 μM ATP; read-out: IC50 in IMAP assay against kinase domain PKCi (Activity).
As for `N[C@H](CCc1ccccc1)COc1nc(-c2ccncc2)nc2sc3c(c12)CCCC3` [compound 167, (R)-3-Phenyl-1-(2-pyridin-4-yl-5,6,7,8-tetrahydro-benzo[4,5]thieno[2,3-d]pyrimidin-4-yloxymethyl)-propylamine], the IC50 is 10 to 40 µM. With `Cc1n[nH]c(C)c1-c1nc(N2CCCNCC2)c2c3c(sc2n1)CCCC3` [compound 191, 4-[1,4]Diazepan-1-yl-2-(3,5-dimethyl-1H-pyrazol-4-yl)-5,6,7,8-tetrahydro-benzo[4,5]thieno[2,3-d]pyrimidine], the IC50 was 0.1 to 1 µM. On the same count and under the same terms, as for `C[C@H](N)COc1nc(-c2ccncc2)nc2sc3c(c12)CCCC3` [compound 144, (S)-1-Methyl-2-(2-pyridin-4-yl-5,6,7,8-tetrahydro-benzo[4,5]thieno[2,3-d]pyrimidin-4-yloxy)-ethylamine], the figure is 0.1 to 1 µM; as for `Cc1csc2nc(-c3ccncc3)nc(N3CCCNCC3)c12` [compound 95, 4-[1,4]Diazepan-1-yl-5-methyl-2-pyridin-4-yl-thieno[2,3-d]pyrimidine], 0.1 to 1 µM.

In the case of `c1n[nH]cc1-c1nc(N[C@@H]2CCNC2)c2c3c(sc2n1)CCCC3` [compound 189, [2-(1H-Pyrazol-4-yl)-5,6,7,8-tetrahydro-benzo[4,5]thieno[2,3-d]pyrimidin-4-yl]-(R)-pyrrolidin-3-yl-amine], the IC50 fell in the range of 0.1 to 1 µM. Turning to `N[C@H](COc1nc(-c2ccncc2)nc2sc3c(c12)CCCC3)Cc1cccs1` [compound 168, (S)-2-(2-Pyridin-4-yl-5,6,7,8-tetrahydro-benzo[4,5]thieno[2,3-d]pyrimidin-4-yloxy)-1-thiophen-2-ylmethyl-ethylamine], the IC50 was in the range of 1 to 10 µM.

For the molecule `CCCCN1CCN(c2nc(-c3ccncc3)nc3sc4c(c23)CCCC4)CC1` [compound 129, 4-(4-Butyl-piperazin-1-yl)-2-pyridin-4-yl-5,6,7,8-tetrahydro-benzo[4,5]thieno[2,3-d]pyrimidine], the IC50 was 10 to 40 µM. With `Cc1n[nH]c(C)c1-c1nc(NCCN)c2c3c(sc2n1)CCCC3` [compound 182, N*1*-[2-(3,5-Dimethyl-1H-pyrazol-4-yl)-5,6,7,8-tetrahydro-benzo[4,5]thieno[2,3-d]pyrimidin-4-yl]-ethane-1,2-diamine], the IC50 was in the range of 0.1 to 1 µM. Still for that read-out and setting: as for `C[C@H](N)CNc1nc(-c2ccncc2F)nc2sc3c(c12)CCCC3` [compound 99, (S)-N*1*-[2-(3-Fluoro-pyridin-4-yl)-5,6,7,8-tetrahydro-benzo[4,5]thieno[2,3-d]pyrimidin-4-yl]-propane-1,2-diamine], the figure is 1 to 10 µM. On the same count and under the same terms, under `c1n[nH]cc1-c1nc(N2CCCNCC2)c2c3c(sc2n1)CCCC3` [compound 186, 4-[1,4]Diazepan-1-yl-2-(1H-pyrazol-4-yl)-5,6,7,8-tetrahydro-benzo[4,5]thieno[2,3-d]pyrimidine] stands 0.1 to 1 µM; under `C[C@@H](N)CNc1nc(-c2ccncc2)nc2sc3c(c12)CCCCCC3` [compound 26, (R)-N*1*-(2-Pyridin-4-yl-5,6,7,8,9, 10-hexahydro-11-thia-1,3-diaza-cycloocta[a]inden-4-yl)-propane-1,2-diamine], 1 to 10 µM. On the same count and under the same terms, as for `N[C@H](CNc1nc(-c2ccncc2)nc2sc3c(c12)CCCCCC3)Cc1ccccc1` [compound 76, (S)-3-Phenyl-N*1*-(2-pyridin-4-yl-5,6,7,8,9,10-hexahydro-11-thia-1,3-diaza-cycloocta[a]inden-4-yl)-propane-1,2-diamine], the figure is 0.1 to 1 µM; as for `CC(C)C[C@H](N)COc1nc(-c2ccncc2)nc2sc3c(c12)CCCC3` [compound 138, (S)-3-Methyl-1-(2-pyridin-4-yl-5,6,7,8-tetrahydro-benzo[4,5]thieno[2,3-d]pyrimidin-4-yloxymethyl)-butylamine], 1 to 10 µM. `CC1CCc2c(sc3nc(-c4ccncc4)nc(NCCN)c23)C1` (centres unmarked) [compound 21, N*1*-(7-Methyl-2-pyridin-4-yl-5,6,7,8-tetrahydro-benzo[4,5]thieno[2,3-d]pyrimidin-4-yl)-ethane-1,2-diamine]: the IC50 was 0.1 to 1 µM.

With `NCCNc1nc(-c2ccnc(F)c2)nc2sc3c(c12)CCCC3` [compound 98, N*1*-[2-(2-Fluoro-pyridin-4-yl)-5,6,7,8-tetrahydro-benzo[4,5]thieno[2,3-d]pyrimidin-4-yl]-ethane-1,2-diamine], the half-maximal inhibitory concentration (IC50) is 10 to 40 µM. On the same count and under the same terms, under `c1ccc(CN2CCN(c3nc(-c4ccncc4)nc4sc5c(c34)CCCC5)CC2)cc1` [compound 116, 4-(4-Benzyl-piperazin-1-yl)-2-pyridin-4-yl-5,6,7,8-tetrahydro-benzo[4,5]thieno[2,3-d]pyrimidine] stands 10 to 40 µM. For the molecule `N[C@@H](COc1nc(-c2ccncc2)nc2sc3c(c12)CCCC3)Cc1ccc2ccccc2c1` [compound 172, (R)-1-Naphthalen-2-ylmethyl-2-(2-pyridin-4-yl-5,6,7,8-tetrahydro-benzo[4,5]thieno[2,3-d]pyrimidin-4-yloxy)-ethylamine], the IC50 fell in the range of 10 to 40 µM. With `CC(C)c1cc2c(NC[C@@H](N)Cc3ccccc3)nc(-c3ccncc3)nc2s1` [compound 75, (S)-N*1*-(6-Isopropyl-2-pyridin-4-yl-thieno[2,3-d]pyrimidin-4-yl)-3-phenyl-propane-1,2-diamine], the IC50 was in the range of 1 to 10 µM. On the same count and under the same terms, as for `NCCNc1nc(-c2ccncc2)nc2sc3c(c12)CCCCC3` [compound 84, N*1*-(2-pyridin-4-yl-6,7,8,9-tetrahydro-5H-10-thia-1,3-diaza-benzo[a]azulen-4-yl)-ethane-1,2-diamine], the figure is 0.1 to 1 µM; as for `N[C@H](COc1nc(-c2ccncc2)nc2sc3c(c12)CCCC3)Cc1c[nH]cn1` [compound 175, (S)-1-(1H-Imidazol-4-ylmethyl)-2-(2-pyridin-4-yl-5,6,7,8-tetrahydro-benzo[4,5]thieno[2,3-d]pyrimidin-4-yloxy)-ethylamine], 10 to 40 µM; as for `Cc1sc2nc(-c3ccncc3)nc(N3CCCNCC3)c2c1-c1ccccc1` [compound 92, 4-[1,4]Diazepan-1-yl-6-methyl-5-phenyl-2-pyridin-4-yl-thieno[2,3-d]pyrimidine], 1 to 10 µM. On to `COc1cccc(C[C@H](N)COc2nc(-c3ccncc3)nc3sc4c(c23)CCCC4)c1` [compound 180, (S)-1-(3-Methoxy-benzyl)-2-(2-pyridin-4-yl-5,6,7,8-tetrahydro-benzo[4,5]thieno[2,3-d]pyrimidin-4-yloxy)-ethylamine], for which the IC50 lay within 1 to 10 µM. For the molecule `CC(C)[C@@H](N)COc1nc(-c2ccncc2)nc2sc3c(c12)CCCC3` [compound 148, (R)-2-Methyl-1-(2-pyridin-4-yl-5,6,7,8-tetrahydro-benzo[4,5]thieno[2,3-d]pyrimidin-4-yloxymethyl)-propylamine], the IC50 lay in the range of 10 to 40 µM. Consider `CC(C)Cc1csc2nc(-c3ccncc3)nc(NC[C@@H](C)N)c12` [compound 30, (R)-N*1*-(5-Isobutyl-2-pyridin-4-yl-thieno[2,3-d]pyrimidin-4-yl)-propane-1,2-diamine], for which the IC50 fell in the range of 1 to 10 µM. The same measure, in the same setting: as for `Cc1sc2nc(-c3ccncc3)nc(NC[C@H](C)N)c2c1C` [compound 37, (S)-N*1*-(5,6-Dimethyl-2-pyridin-4-yl-thieno[2,3-d]pyrimidin-4-yl)-propane-1,2-diamine], the figure is 1 to 10 µM; as for `Cc1cccc(C[C@H](N)COc2nc(-c3ccncc3)nc3sc4c(c23)CCCC4)c1` [compound 165, (S)-1-(3-Methyl-benzyl)-2-(2-pyridin-4-yl-5,6,7,8-tetrahydro-benzo[4,5]thieno[2,3-d]pyrimidin-4-yloxy)-ethylamine], 1 to 10 µM. Still for that read-out and setting: under `CCc1c(C)sc2nc(-c3ccncc3)nc(NC[C@@H](C)N)c12` [compound 32, (R)-N*1*-(5-Ethyl-6-methyl-2-pyridin-4-yl-thieno[2,3-d]pyrimidin-4-yl)-propane-1,2-diamine] stands 10 to 40 µM; under `NCCOc1nc(-c2ccncc2)nc2sc3c(c12)CCCC3` [compound 136], 0.1 to 1 µM; under `C[C@@H]1CN(c2nc(-c3ccncc3)nc3sc4c(c23)CCCC4)C[C@H](C)N1` [compound 9, 4-((3R,5S)-3,5-Dimethyl-piperazin-1-yl)-2-pyridin-4-yl-5,6,7,8-tetrahydro-benzo[4,5]thieno[2,3-d]pyrimidine], 1 to 10 µM.

Values taken from US10183950B2, “Thienopyrimidine inhibitors of atypical protein kinase C” (Cancer Research Technology Limited, priority 2011, dated 2019).
